ChEMBL document CHEMBL6134822, “Discovery of a potent and in vivo anti-inflammatory Efficacious, P2Y14R antagonist with a novel benzisoxazoles scaffold by DNA-encoded chemical library technology” (Eur J Med Chem, 2025)
Active and inactive are the calls of the source. The rule behind the calls is not given here.

Legend:
[1] = Stability in simulated intestinal fluid assessed as half life; type: physicochemical
[2] = Stability in simulated gastric fluid assessed as half life; type: physicochemical
[3] = Microsomal stability in human liver microsomes assessed as intrinsic clearance; type: ADME, Microsome; conditions: read-out: CLH
[4] = Microsomal stability in human liver microsomes assessed as half life; type: ADME, Microsome
Mus musculus [5] = assay: Anti-inflammatory activity in C57BL/6 mouse model of LPS-induced ALI assessed as reduction in MPO level in lung tissue at 2 to 6 mg/kg qd treated for 7 days; type: functional, organism-based; conditions: dose 2-6 mg/kg, time 7.0 day
Mus musculus [6] = assay: Anti-inflammatory activity in C57BL/6 mouse model of LPS-induced ALI assessed as reduction in TNF-alpha level in BALF at 2 to 6 mg/kg qd treated for 7 days by ELISA; type: functional, organism-based; conditions: dose 2-6 mg/kg, time 7.0 day
Mus musculus [7] = assay: Anti-inflammatory activity in C57BL/6 mouse model of LPS-induced ALI assessed as reduction in IL-6 level in BALF at 2 to 6 mg/kg qd treated for 7 days by ELISA; type: functional, organism-based; conditions: dose 2-6 mg/kg, time 7.0 day
Mus musculus [8] = assay: Anti-inflammatory activity in C57BL/6 mouse model of LPS-induced ALI assessed as reduction in lung tissue damage at 2 to 6 mg/kg qd treated for 7 days by H and E staining based analysis; type: functional, organism-based; conditions: dose 2-6 mg/kg, time 7.0 day
P2Y purinoceptor 14 [9] = biological target: T1, P2Y purinoceptor 14 (Homo sapiens, UniProt Q15391); assay: Antagonist activity at P2Y14 receptor (unknown origin) stably expressed in HEK293 cells assessed as inhibition of forskolin-induced intracellular cAMP production incubated for 30 mins in presence of UDPG by Camp-Glo kit assay; type: functional, cell-based
T1 sequence (Q15391 whole entry): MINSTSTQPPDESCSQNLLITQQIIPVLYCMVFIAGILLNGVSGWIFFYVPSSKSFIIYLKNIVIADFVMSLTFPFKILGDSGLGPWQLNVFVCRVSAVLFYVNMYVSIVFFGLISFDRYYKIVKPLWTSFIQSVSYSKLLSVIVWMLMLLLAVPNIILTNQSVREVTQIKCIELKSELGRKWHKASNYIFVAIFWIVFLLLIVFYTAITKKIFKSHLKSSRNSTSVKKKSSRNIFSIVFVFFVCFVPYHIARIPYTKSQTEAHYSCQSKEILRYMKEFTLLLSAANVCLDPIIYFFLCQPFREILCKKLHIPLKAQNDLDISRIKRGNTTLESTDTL

[10] = Toxicity in C57BL/6 mouse model of LPS-induced ALI assessed as average body weight change at 2 to 6 mg/kg qd treated for 7 days; type: organism-based; conditions: in vivo, 168 h, dose 2-6 mg/kg, time 7 day
Mus musculus [11] = assay: Anti-inflammatory activity in C57BL/6 mouse model of LPS-induced ALI assessed as reduction in IL-1beta level in BALF at 2 to 6 mg/kg qd treated for 7 days by ELISA; type: functional, organism-based; conditions: dose 2-6 mg/kg, time 7.0 day
P2Y purinoceptor 14 [12] = biological target: T1, P2Y purinoceptor 14; assay: Binding affinity to CM5 chip-immobilized P2Y14 receptor (unknown origin) assessed as equilibrium dissociation constant by SPR analysis

half-life [1]: > 300 min
half-life [2]: > 3000 min
microsomal CLint [3]: 25.6 µL/min/mg
half-life [4]: 354 min
IC50 (P2Y purinoceptor 14 [9]): 23.6 nM
Kd (P2Y purinoceptor 14 [12]): 7.26 µM
Compound: CNC(=O)C1CN(C(=O)c2onc3ccccc23)CC12CCN(C(=O)c1noc3ccccc13)CC2 (configuration not stated)
Activity (Mus musculus [5]): Active
Activity (Mus musculus [6]): Active
Activity (Mus musculus [7]): Active
Activity (Mus musculus [8]): Active
Activity [10]: Non-toxic
Activity (Mus musculus [11]): Active
